For assay [1], the system named is Human immunodeficiency virus 1. Description: Affinity for HIV-1 Nucleocapsid Protein (12-53)NCp7 was determined. Type of assay: functional.
The target in assay [2] is Human immunodeficiency virus type 1 reverse transcriptase (Human immunodeficiency virus 1) (UniProt Q72547). Description: Reverse transcriptase activity using an HIV-1 infected cell line at 10 micro M concentration.

Molecules are shown by their SMILES.

This is an account of results in ChEMBL document CHEMBL1131956, “Nucleomimetic strategy for the inhibition of HIV-1 nucleocapsid protein NCp7 activities” (1999).

The compound `Cc1cn(C2CC(O)C(NC(=O)CC3CC(n4cnc5c(O)nc(N)nc54)OC3CO)O2)c(=O)[nH]c1=O` (configuration not stated) came in with an Affinity in assay [1] of 9 M⁻¹. For orientation: inhibition means the drop in the measured response relative to a control, in per cent. In turn, `Cc1cn(C2CC(CC(=O)NC3OC(n4cnc5c(O)nc(N)nc54)CC3O)C(CO)O2)c(=O)[nH]c1=O` (configuration not stated) displayed an inhibition in assay [2] of 20%.
